Laboratory results: US20240207157A1, “ORAL CARE AGENT” (priority 2021, published 2024)

Tests used:
[1] = system: human epidermal HaCaT keratinocytes; experiment: fluorometric CyQUANT cell proliferation study (DNA content); type: cell-based; details: 0.00005, 0.0005, 0.005% caffeine; 24, 48 or 72 hours; best effects after 72 hours
Procedure: To investigate the effect of caffeine on cell proliferation of human epidermal HaCaT keratinocytes, human HaCaT keratinocytes were subjected to a CyQUANT viability assay, wherein the following series of experiments were performed: • 1. P22 Experiment 1 (biological assay 1) • 2. P24 Experiment 2 (biological assay 2).
The trial durations were 24, 48 or 72 hours.
The study was carried out by fluorometric CyQUANT study, wherein the DNA content was measured, reflecting cell proliferation.

VEGF [2] = experiment: Q-PCR, VEGF mRNA expression in HaCaT cell lysates; type: cell-based, human
Procedure: (§1) For Q-PCR: Determination of VEGF, HGF and EGF mRNA expression in cell lysates • 2. For ELISA: Determination of VEGF, HGF and EGF protein synthesis/secretion into the culture medium
(§2) The initial cell count was • 1. for Q-PCR: 140,000 cells/well in 1500 μl culture medium • 2. for ELISA: 140,000 cells/well in 1.500 μl culture medium.
(§3) The trial duration for • 1. Q-PCR was 24 hours (single treatment at time 0 h) • 2. ELISA was 48 hours (double treatment at time 0 h and 24 h without changing the medium).
(§4) The study was carried out • 1. for Q-PCR by determining VEGF mRNA expression in cell lysates • 2. for ELISA by determining VEGF protein synthesis/secretion in the culture medium.

VEGF [3] = experiment: ELISA, VEGF protein synthesis/secretion into the culture medium of HaCaT cells; type: cell-based, human; details: 48 hours
Procedure: as §1, §2, §3, §4

GM-CSF [4] = experiment: Q-PCR, GM-CSF experiments in HaCaT cells; type: cell-based, human; details: all tested caffeine concentrations, 24 h, Experiments 1 and 2
Procedure: as §1, §2, §3

GM-CSF [5] = experiment: ELISA, GM-CSF experiments in HaCaT cells; type: cell-based, human; details: 48 h
Procedure: as §1, §2, §3

TGFβ1 = experiment: Q-PCR, TGFβ1 mRNA expression in HaCaT cells; type: cell-based, human
TGFβ2 = experiment: Q-PCR, TGFβ2 mRNA expression in HaCaT cells; type: cell-based, human
[6] = humans, after drinking four cups of coffee; cited from earlier work
[7] = system: human epidermal HaCaT keratinocytes; experiment: colorimetric MTT viability study on HaCaT keratinocytes
Procedure: To investigate the effect of caffeine on the biological functions of human epidermal HaCaT keratinocytes, cell experiments were performed on human epidermal HaCaT keratinocytes, wherein the following studies were carried out: • 1.
The initial cell count was 5000 cells/well in 100 μl culture medium.
The culture medium was HaCaT medium (DMEM with the addition of 10% FBS, 1% penicillin-streptomycin, 0.5% fungizone).
The treatment groups were as follows: • 1. Control group (CTRL) • 2. 0.00005% caffeine • 3. 0.0001% caffeine • 4. 0.0005% caffeine • 5. 0.001% caffeine • 6. 0.005% caffeine
The trial durations were 24, 48 and 72 hours.
The study took the form of a colorimetric MTT study.

[8] = 0.0005% caffeine, both experiments

Cn1c(=O)c2c(ncn2C)n(C)c1=O [caffeine]
cell proliferation [1]: appears to promote cell proliferation
mRNA expression of VEGF compared to the control group (VEGF [2]; all caffeine concentrations, 24 hours treatment, Experiments 1 and 2): appear to increase mRNA expression of VEGF
synthesis and production/secretion of VEGF (VEGF [2]; certain concentrations of caffeine, Q-PCR and ELISA taken together): increase the synthesis and production/secretion of VEGF
VEGF protein production/secretion compared to the control group (VEGF [3]; [8]): increases VEGF protein production/secretion
VEGF protein production/secretion compared to the control group (VEGF [3]; 0.005% caffeine, Experiment 2): also showed an effect
mRNA expression of VEGF compared to the control group (experiments regarding GM-CSF) (GM-CSF [4]): apparently increased the mRNA expression of VEGF
VEGF protein production/secretion compared to the control group (experiments regarding GM-CSF) (GM-CSF [5]; 0j.005% caffeine, Experiment 2): also showed an effect
VEGF protein production/secretion compared to the control group (experiments regarding GM-CSF) (GM-CSF [5]; [8]): increased VEGF protein production/secretion
mRNA expression of TGFβ1 (TGFβ1; all tested caffeine concentrations, 24 h, Experiments 1 and 2): None of the tested caffeine concentrations changed the mRNA expression of TGFβ1
synthesis/production/secretion of TGFβ1 (TGFβ1; taken together, Q-PCR and ELISA): does not alter
mRNA expression of TGFβ2 (TGFβ2; certain caffeine concentrations, 24 h, Experiment 2): apparently increase mRNA expression of TGFβ2
synthesis/production/secretion of TGFβ2 (TGFβ2; taken together, contradictory results in the two Q-PCR experiments): most likely does not alter
caffeine concentration in the blood serum [6]: 20 to 50 µmol/L
total amount corresponding to the serum concentration [6]: 15-35 milligrams
cytotoxicity ([7]; 0.00005-0.005% caffeine, up to 72 hours): none of the concentrations tested showed cytotoxicity
number of viable cells ([7]; certain concentrations of caffeine, MTT): increased the number of viable cells
